According to ChEMBL document CHEMBL4840369, “Structure-based screening combined with computational and biochemical analyses identified the inhibitor targeting the binding of DNA Ligase 1 to UHRF1” (Bioorg Med Chem, 2021):
Calls of active or inactive are those of the source. No cut-off for these calls is given here.

Columns and labels:
[1] = target: T1, E3 ubiquitin-protein ligase UHRF1 (Homo sapiens) (UniProt Q96T88); assay: Displacement of FAM-labeled LIG1K126me3 from UHRF1 TTD(unknown origin) by fluorescence polarization assay
T1 sequence (whole entry): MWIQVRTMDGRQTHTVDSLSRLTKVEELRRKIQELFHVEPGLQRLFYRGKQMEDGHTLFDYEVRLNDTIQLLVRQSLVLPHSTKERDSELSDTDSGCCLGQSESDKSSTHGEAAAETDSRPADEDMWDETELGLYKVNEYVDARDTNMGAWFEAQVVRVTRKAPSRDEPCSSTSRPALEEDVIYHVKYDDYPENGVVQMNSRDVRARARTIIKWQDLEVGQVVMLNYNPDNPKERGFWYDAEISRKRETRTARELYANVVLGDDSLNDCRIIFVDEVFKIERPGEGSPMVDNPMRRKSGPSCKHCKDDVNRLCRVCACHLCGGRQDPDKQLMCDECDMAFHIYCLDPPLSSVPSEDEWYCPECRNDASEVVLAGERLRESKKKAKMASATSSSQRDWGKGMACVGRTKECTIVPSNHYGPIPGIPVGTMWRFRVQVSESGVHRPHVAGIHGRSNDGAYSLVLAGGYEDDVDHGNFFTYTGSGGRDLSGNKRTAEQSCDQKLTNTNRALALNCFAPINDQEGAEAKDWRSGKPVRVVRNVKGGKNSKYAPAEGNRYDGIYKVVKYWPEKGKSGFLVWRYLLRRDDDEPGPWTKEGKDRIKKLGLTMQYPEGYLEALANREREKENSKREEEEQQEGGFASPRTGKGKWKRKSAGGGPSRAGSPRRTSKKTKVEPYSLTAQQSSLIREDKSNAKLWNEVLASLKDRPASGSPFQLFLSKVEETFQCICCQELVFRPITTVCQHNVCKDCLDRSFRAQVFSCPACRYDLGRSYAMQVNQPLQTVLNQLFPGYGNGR

[2] = target: E3 ubiquitin-protein ligase UHRF1 (Homo sapiens, UniProt Q96T88, M224A); assay: Binding affinity to UHRF1 M224A mutant (unknown origin) assessed as dissociation constant by ITC analysis
[3] = target: E3 ubiquitin-protein ligase UHRF1 (Homo sapiens, UniProt Q96T88); assay: Binding affinity to UHRF1 TTD variant loop (unknown origin) assessed as dissociation constant by ITC analysis
[4] = target: T2, E3 ubiquitin-protein ligase UHRF1 (Homo sapiens, UniProt Q96T88); assay: Binding affinity to UHRF1 TTD (unknown origin) assessed as dissociation constant by ITC analysis
T2 sequence (Q96T88 whole entry): T1 sequence (whole entry)

[5] = target: T1, E3 ubiquitin-protein ligase UHRF1 (Homo sapiens); assay: Binding affinity to UHRF1 TTD (unknown origin) assessed as compound-protein complex stoichiometry ratio of 1:1 by ITC analysis
[6] = target: T1, E3 ubiquitin-protein ligase UHRF1 (Homo sapiens); assay: Binding affinity to UHRF1 TTD (unknown origin) assessed as increase in thermal stability by melting temperature by SYPRO orange dye based fluorescence assay (reference value: 46.5 +/- 0.1 degreeC)
[7] = target: T1, E3 ubiquitin-protein ligase UHRF1 (Homo sapiens); assay: Displacement of FAM-labeled H3K9me3 from UHRF1 TTD(unknown origin) by fluorescence polarization assay
[8] = target: T3, E3 ubiquitin-protein ligase UHRF1 (Xenopus laevis) (UniProt B6CHA3); assay: Inhibition of UHRF1 TTD binding with LIG1K126me3 in Xenopus laevis eggs incubated for 1 hr by immunoprecipitation; assay type: tissue-based; settings: Egg
T3 sequence (whole entry): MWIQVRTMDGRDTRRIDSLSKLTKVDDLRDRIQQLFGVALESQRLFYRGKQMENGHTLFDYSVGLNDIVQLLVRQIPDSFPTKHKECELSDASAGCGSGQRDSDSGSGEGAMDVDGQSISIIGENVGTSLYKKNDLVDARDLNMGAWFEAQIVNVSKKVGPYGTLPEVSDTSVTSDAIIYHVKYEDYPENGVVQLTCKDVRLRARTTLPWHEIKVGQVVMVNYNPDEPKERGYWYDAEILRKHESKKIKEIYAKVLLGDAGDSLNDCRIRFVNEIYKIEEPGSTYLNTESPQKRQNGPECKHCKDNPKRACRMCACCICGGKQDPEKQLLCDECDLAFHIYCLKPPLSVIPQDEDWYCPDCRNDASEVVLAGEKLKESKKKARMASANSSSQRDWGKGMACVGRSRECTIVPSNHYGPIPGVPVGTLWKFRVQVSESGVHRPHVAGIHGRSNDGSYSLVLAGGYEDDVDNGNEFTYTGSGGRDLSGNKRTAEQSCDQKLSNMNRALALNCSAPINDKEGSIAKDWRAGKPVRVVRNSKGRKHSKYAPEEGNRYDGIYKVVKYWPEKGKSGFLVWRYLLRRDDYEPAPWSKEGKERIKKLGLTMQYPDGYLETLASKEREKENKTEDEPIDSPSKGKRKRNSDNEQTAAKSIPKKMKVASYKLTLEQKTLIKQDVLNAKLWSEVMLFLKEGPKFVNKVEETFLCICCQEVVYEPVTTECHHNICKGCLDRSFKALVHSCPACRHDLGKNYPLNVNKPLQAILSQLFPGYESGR

[9] = target: E3 ubiquitin-protein ligase UHRF1 (Homo sapiens, UniProt Q96T88, F278A); assay: Binding affinity to UHRF1 F278A mutant (unknown origin) assessed as dissociation constant by ITC analysis
[10] = target: E3 ubiquitin-protein ligase UHRF1 (Homo sapiens, UniProt Q96T88, Y188A/Y191A); assay: Binding affinity to UHRF1 Y188A/Y191A double mutant (unknown origin) assessed as dissociation constant by ITC analysis
[11] = target: T1, E3 ubiquitin-protein ligase UHRF1 (Homo sapiens); assay: Binding affinity to UHRF1 TTD (unknown origin) assessed as increase in thermal stability by measuring change in melting temperature by SYPRO orange dye based fluorescence assay
[12] = target: T1, E3 ubiquitin-protein ligase UHRF1 (Homo sapiens); assay: Binding affinity to UHRF1 TTD (unknown origin) assessed as change in enthalpy by ITC analysis

Chain of E3 ubiquitin-protein ligase UHRF1 (Homo sapiens, UniProt Q96T88, F278A) (Q96T88 whole entry F278A): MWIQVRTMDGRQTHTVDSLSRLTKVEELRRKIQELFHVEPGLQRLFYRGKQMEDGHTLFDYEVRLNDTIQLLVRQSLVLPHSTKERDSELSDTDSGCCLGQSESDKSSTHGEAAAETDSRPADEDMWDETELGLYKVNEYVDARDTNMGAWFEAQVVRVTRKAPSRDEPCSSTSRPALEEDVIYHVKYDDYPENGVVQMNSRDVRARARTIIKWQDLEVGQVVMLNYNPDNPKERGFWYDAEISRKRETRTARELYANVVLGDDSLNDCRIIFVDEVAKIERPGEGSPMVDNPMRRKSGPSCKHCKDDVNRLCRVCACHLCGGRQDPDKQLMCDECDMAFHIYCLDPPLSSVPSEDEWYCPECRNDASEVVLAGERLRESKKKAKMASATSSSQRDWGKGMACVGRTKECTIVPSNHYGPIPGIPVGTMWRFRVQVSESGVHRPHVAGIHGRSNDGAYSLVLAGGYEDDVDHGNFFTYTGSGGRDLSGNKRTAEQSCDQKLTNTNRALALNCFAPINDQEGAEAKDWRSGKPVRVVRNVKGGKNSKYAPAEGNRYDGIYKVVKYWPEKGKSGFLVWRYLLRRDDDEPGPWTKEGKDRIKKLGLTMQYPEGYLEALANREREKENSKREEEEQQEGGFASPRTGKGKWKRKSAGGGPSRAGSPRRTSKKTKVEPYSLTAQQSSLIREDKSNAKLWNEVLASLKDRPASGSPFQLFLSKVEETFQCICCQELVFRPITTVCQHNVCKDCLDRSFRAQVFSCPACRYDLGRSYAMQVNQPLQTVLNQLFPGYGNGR
Chain of E3 ubiquitin-protein ligase UHRF1 (Homo sapiens, UniProt Q96T88, M224A) (Q96T88 whole entry M224A): as the sequence (Q96T88 whole entry F278A) above, with M224A, A278F counted along it
Chain of E3 ubiquitin-protein ligase UHRF1 (Homo sapiens, UniProt Q96T88, Y188A/Y191A) (Q96T88 whole entry Y188A/Y191A): as the sequence (Q96T88 whole entry F278A) above, with Y188A, Y191A, A278F counted along it

INH [1]: 806 µM
Kd [2]: > 111 µM
Kd [3]: 20.7 µM
Kd [4]: 19.3 µM
Activity [5]: Active
Tm [6]: 49.6 °C
INH [7]: 249 µM
inhibition [8]: Dose-Dependent Effect
Kd [9]: > 183 µM
Kd [10]: 32 µM
deltaT [11]: 3.1 °C
deltaH [12]: -8.5 kcal/mol
SMILES: Cc1cc(C)c(N)cn1
